Among the data in US20120039847A1, “Hepatitis C Virus Inhibitors” (priority 2010, published 2012) are IC50 values, retold here.

For this test, the system named is HCV genotype 1b replicon (2209-23 cells, Huh7). In words: HCV replicon assay (Renilla luciferase reporter). It is filed as cell-based. The settings on record: Hepatitis C virus, Huh-7, 72 h, Huh7-derived cell line 2209-23, three days incubation, luciferase readout. Background: In antiviral work, replicon cells carry a viral genome segment that copies itself.

Usually IC50 stands for the point on the concentration scale where inhibition reaches its midpoint. Read a low IC50 as greater potency in that assay.

SMILES strings stand for the structures.

Compound `COC(=O)N[C@H](C(=O)N1CCC[C@H]1C(=O)Nc1ccc2cc(-c3ccc(-c4cnc([C@@H]5CCCN5C(=O)[C@@H](NC(=O)OC)C(C)C)[nH]4)cc3)ccc2c1)C(C)C` [I-1, ((S)-1-{(S)-2-[6-(4-{2-[(S)-1-((S)-2-Methoxycarbonylamino-3-methyl-butyryl)-pyrrolidin-2-yl]-3H-imidazol-4-yl}-phenyl)-naphthalen-2-ylcarbamoyl]-pyrrolidine-1-carbonyl}-2-methyl-propyl)-carbamic acid methyl ester] displayed an IC50 of 41 pM. For `COC(=O)N[C@H](C(=O)N1CCC[C@H]1C(=O)NC1CCCc2cc(-c3ccc(-c4cnc([C@@H]5CCCN5C(=O)[C@@H](NC(=O)OC)C(C)C)[nH]4)cc3)ccc21)C(C)C` (stereo partly drawn) [I-2, [(S)-1-((S)-2-{5-[4-(5-{[(S)-1-((S)-2-Methoxycarbonylamino-3-methyl-butyryl)-pyrrolidine-2-carbonyl]-amino}-5,6,7,8-tetrahydro-naphthalen-2-yl)-phenyl]-1H-imidazol-2-yl}-pyrrolidine-1-carbonyl)-2-methyl-propyl]-carbamic acid methyl ester], the IC50 was found to be 4000 pM. For the compound `COC(=O)N[C@H](C(=O)N1CCC[C@H]1C(=O)Nc1ccc2nc(-c3ccc(-c4cnc([C@@H]5CCCN5C(=O)[C@@H](NC(=O)OC)C(C)C)[nH]4)cc3)ccc2c1)C(C)C` [I-3, ((S)-1-{(S)-2-[2-(4-{2-[(S)-1-((S)-2-Methoxycarbonylamino-3-methyl-butyryl)-pyrrolidin-2-yl]-3H-imidazol-4-yl}-phenyl)-quinolin-6-ylcarbamoyl]-pyrrolidine-1-carbonyl}-2-methyl-propyl)-carbamic acid methyl ester], 413 pM corresponded to half-maximal inhibition (IC50). `COC(=O)N[C@H](C(=O)N1CCC[C@H]1C(=O)NC1CCc2cc(-c3ccc(-c4cnc([C@@H]5CCCN5C(=O)[C@@H](NC(=O)OC)C(C)C)[nH]4)cc3)ccc21)C(C)C` (stereo partly drawn) [I-4, [(S)-1-((S)-2-{5-[4-(1-{[(S)-1-((S)-2-Methoxycarbonylamino-3-methyl-butyryl)-pyrrolidine-2-carbonyl]-amino}-indan-5-yl)-phenyl]-1H-imidazol-2-yl}-pyrrolidine-1-carbonyl)-2-methyl-propyl]-carbamic acid methyl ester]: the 50% inhibitory concentration (IC50) is 310 pM.

In turn, `COC(=O)N[C@H](C(=O)N1CCC[C@H]1C(=O)Nc1cccc2cc(-c3ccc(-c4cnc([C@@H]5CCCN5C(=O)[C@@H](NC(=O)OC)C(C)C)[nH]4)cc3)ccc12)C(C)C` [I-5, [(S)-1-((S)-2-{5-[4-(5-{[(S)-1-((S)-2-Methoxycarbonylamino-3-methyl-butyryl)-pyrrolidine-2-carbonyl]-amino}-naphthalen-2-yl)-phenyl]-1H-imidazol-2-yl}-pyrrolidine-1-carbonyl)-2-methyl-propyl]-carbamic acid methyl ester] showed an IC50 of 200 pM. With `COC(=O)N[C@H](C(=O)N1CCC[C@H]1C(=O)Nc1nccc2cc(-c3ccc(-c4cnc([C@@H]5CCCN5C(=O)[C@@H](NC(=O)OC)C(C)C)[nH]4)cc3)ccc12)C(C)C` [I-6, [(S)-1-((S)-2-{5-[4-(1-{[(S)-1-((S)-2-Methoxycarbonylamino-3-methyl-butyryl)-pyrrolidine-2-carbonyl]-amino}-isoquinolin-6-yl)-phenyl]-1H-imidazol-2-yl}-pyrrolidine-1-carbonyl)-2-methyl-propyl]-carbamic acid methyl ester], 13900 pM corresponded to half-maximal inhibition (IC50). The compound `COC(=O)N[C@H](C(=O)N1CCC[C@H]1C(=O)Nc1ccc2cc(-c3ccc(-c4cnc([C@@H]5CCCN5C(=O)[C@@H](NC(=O)OC)C(C)C)[nH]4)cc3)ccc2n1)C(C)C` [I-7, ((S)-1-{(S)-2-[6-(4-{2-[(S)-1-((S)-2-Methoxycarbonylamino-3-methyl-butyryl)-pyrrolidin-2-yl]-3H-imidazol-4-yl}-phenyl)-quinolin-2-ylcarbamoyl]-pyrrolidine-1-carbonyl}-2-methyl-propyl)-carbamic acid methyl ester] had an IC50 of 150 pM. In turn, `COC(=O)N[C@H](C(=O)N1CCC[C@H]1C(=O)Nc1nc2cc(-c3ccc(-c4cnc([C@@H]5CCCN5C(=O)[C@@H](NC(=O)OC)C(C)C)[nH]4)cc3)ccc2[nH]1)C(C)C` [I-8, [(S)-1-((S)-2-{5-[4-(2-{[(S)-1-((S)-2-Methoxycarbonylamino-3-methyl-butyryl)-pyrrolidine-2-carbonyl]-amino}-1H-benzoimidazol-5-yl)-phenyl]-1H-imidazol-2-yl}-pyrrolidine-1-carbonyl)-2-methyl-propyl]-carbamic acid methyl ester] showed an IC50 of 370 pM. Compound `COC(=O)N[C@H](C(=O)N1CCC[C@H]1C(=O)NC1Cc2ccc(-c3ccc(-c4cnc([C@@H]5CCCN5C(=O)[C@@H](NC(=O)OC)C(C)C)[nH]4)cc3)cc2C1)C(C)C` (stereo partly drawn) [I-9, ((S)-1-{(S)-2-[5-(4-{2-[(S)-1-((S)-2-Methoxycarbonylamino-3-methyl-butyryl)-pyrrolidin-2-yl]-3H-imidazol-4-yl}-phenyl)-indan-2-ylcarbamoyl]-pyrrolidine-1-carbonyl}-2-methyl-propyl)-carbamic acid methyl ester] gave an IC50 of 430 pM. As to `COC(=O)N[C@H](C(=O)N1CCC[C@H]1C(=O)NC1CCc2cc(-c3ccc(-c4cnc([C@@H]5CCCN5C(=O)[C@@H](NC(=O)OC)C(C)C)[nH]4)cc3)ccc2C1)C(C)C` (stereo partly drawn) [I-10, ((S)-1-{(S)-2-[6-(4-{2-[(S)-1-((S)-2-Methoxycarbonylamino-3-methyl-butyryl)-pyrrolidin-2-yl]-3H-imidazol-4-yl}-phenyl)-1,2,3,4-tetrahydro-naphthalen-2-ylcarbamoyl]-pyrrolidine-1-carbonyl}-2-methyl-propyl)-carbamic acid methyl ester], the IC50 was 1200 pM. `COC(=O)N[C@H](C(=O)N1CCC[C@H]1c1ncc(-c2ccc(-c3ccc4cc(NC(=O)[C@@H]5CCCN5C(C)=O)ccc4n3)cc2)[nH]1)C(C)C` [I-11, ((S)-1-{(S)-2-[5-(4-{6-[((S)-1-Acetyl-pyrrolidine-2-carbonyl)-amino]-quinolin-2-yl}-phenyl)-1H-imidazol-2-yl]-pyrrolidine-1-carbonyl}-2-methyl-propyl)-carbamic acid methyl ester] had a 50% inhibitory concentration (IC50) of 630 pM. The same measure for `COC(=O)N[C@H](C(=O)N1CCC[C@H]1C(=O)N1CCc2cc(-c3ccc(-c4cnc([C@@H]5CCCN5C(=O)[C@@H](NC(=O)OC)C(C)C)[nH]4)cc3)ccc2C1)C(C)C` [I-12, ((S)-1-{(S)-2-[5-(4-{2-[(S)-1-((S)-2-Methoxycarbonylamino-3-methyl-butyryl)-pyrrolidine-2-carbonyl]-1,2,3,4-tetrahydro-isoquinolin-6-yl}-phenyl)-1H-imidazol-2-yl]-pyrrolidine-1-carbonyl}-2-methyl-propyl)-carbamic acid methyl ester]: 2060 pM.

Turning to `COC(=O)N[C@H](C(=O)N1CCC[C@H]1c1ncc(-c2ccc(-c3ccc4cc(NC(=O)[C@@H]5CCCN5C(=O)C(C)C)ccc4n3)cc2)[nH]1)C(C)C` [I-13, ((S)-1-{(S)-2-[5-(4-{6-[((S)-1-Isobutyryl-pyrrolidine-2-carbonyl)-amino]-quinolin-2-yl}-phenyl)-1H-imidazol-2-yl]-pyrrolidine-1-carbonyl}-2-methyl-propyl)-carbamic acid methyl ester], the concentration for half-maximal inhibition (IC50) is 1060 pM. For the compound `COC(=O)N[C@H](C(=O)N1CCC[C@H]1c1ncc(-c2ccc(-c3ccc4cc(NC(=O)[C@@H]5CCCN5C(=O)CC(C)C)ccc4n3)cc2)[nH]1)C(C)C` [I-14, [(S)-2-Methyl-1-((S)-2-{5-[4-(6-{[(S)-1-(3-methyl-butyryl)-pyrrolidine-2-carbonyl]-amino}-quinolin-2-yl)-phenyl]-1H-imidazol-2-yl}-pyrrolidine-1-carbonyl)-propyl]-carbamic acid methyl ester], half-maximal inhibition (IC50) required 1700 pM. With `COC(=O)N[C@H](C(=O)N1CCC[C@H]1c1ncc(-c2ccc(-c3ccc4cc(NC(=O)[C@@H]5CCCN5C(=O)c5ccccc5)ccc4n3)cc2)[nH]1)C(C)C` [I-15, ((S)-1-{(S)-2-[5-(4-{6-[((S)-1-Benzoyl-pyrrolidine-2-carbonyl)-amino]-quinolin-2-yl}-phenyl)-1H-imidazol-2-yl]-pyrrolidine-1-carbonyl}-2-methyl-propyl)-carbamic acid methyl ester], the midpoint of inhibition, the IC50, lay at 1400 pM. `COC(=O)N[C@H](C(=O)N1CCC[C@H]1C(=O)NCc1ccc(-c2ccc(-c3cnc([C@@H]4CCCN4C(=O)[C@@H](NC(=O)OC)C(C)C)[nH]3)cc2)cc1)C(C)C` [I-16, ((S)-1-{(S)-2-[(4′-{2-[(S)-1-((S)-2-Methoxycarbonylamino-3-methyl-butyryl)-pyrrolidin-2-yl]-3H-imidazol-4-yl}-biphenyl-4-ylmethyl)-carbamoyl]-pyrrolidine-1-carbonyl}-2-methyl-propyl)-carbamic acid methyl ester] returned an IC50 of 1230 pM.
